Assay results from PubChem BioAssay AID256 (DTP/NCI, 2004).
“And” between values parts separate entries of the source, which are not always exact repeats. Equal values may be shown once. Toxic doses and inconclusive results are not listed.

System: CD2F1 mice, L1210 leukemia ip, survival T/C
Assay: NCI In Vivo Anticancer Drug Screen. Data for tumor model L1210 Leukemia (intraperitoneal) in CD2F1 (CDF1) mice
Conditions: higher = longer survival
Method in brief: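 Each value reflects a quotient of treated over vehicle control outcomes in mice with a transplanted tumor.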

[1] = endpoint: mean survival time, dose: 100.0 mg/kg/injection, schedule: Q01DX009 (ip), vehicle: saline
[2] = endpoint: mean survival time, dose: 200.0 mg/kg/injection, schedule: Q01DX009 (ip), vehicle: saline
[3] = endpoint: mean survival time, dose: 400.0 mg/kg/injection, schedule: Q01DX009 (ip), vehicle: saline
[4] = endpoint: mean survival time, dose: 100.0 mg/kg/injection, schedule: Q01DX001 (ip), vehicle: saline
[5] = endpoint: mean survival time, dose: 100.0 mg/kg/injection, schedule: Q04DX003 (ip), vehicle: saline with Tween-80
[6] = endpoint: mean survival time, dose: 200.0 mg/kg/injection, schedule: Q04DX003 (ip), vehicle: saline with Tween-80
[7] = endpoint: mean survival time, dose: 400.0 mg/kg/injection, schedule: Q04DX003 (ip), vehicle: saline with Tween-80

In the case of `CNC(=O)CCC(NC(=O)c1ccc(N(C)Cc2cnc3nc(N)nc(N)c3n2)cc1)C(=O)O` (stereo not drawn), the T/C (endpoint: mean survival time, dose: 1.0 mg/kg/injection, schedule: Q01DX009 (ip), vehicle: sodium bicarbonate) is reported as 103 % of control, the T/C (endpoint: mean survival time, dose: 10.0 mg/kg/injection, schedule: Q01DX009 (ip), vehicle: sodium bicarbonate) is reported as 113 % of control and the T/C (endpoint: mean survival time, dose: 25.0 mg/kg/injection, schedule: Q01DX009 (ip), vehicle: sodium bicarbonate) is reported as 121 % of control.
`NCCc1ccc(O)c(O)c1` was tested, and the T/C (endpoint: mean survival time, dose: 25.0 mg/kg/injection, schedule: Q01DX009 (ip), vehicle: saline) was 97 % of control, the T/C (endpoint: mean survival time, dose: 50.0 mg/kg/injection, schedule: Q01DX009 (ip), vehicle: saline) was 109 % of control and the T/C [1] was 122 % of control and 109 % of control. For the same compound, the T/C [2] was 112 % of control, the T/C [3] was 119 % of control and the T/C (endpoint: median survival time, dose: 0.1 mg/kg/injection, schedule: Q01DX009 (ip), vehicle: saline) was 98 % of control and 107 % of control. For the same compound, the T/C (endpoint: median survival time, dose: 0.5 mg/kg/injection, schedule: Q01DX009 (ip), vehicle: saline) was 101 % of control and 107 % of control, the T/C (endpoint: median survival time, dose: 1.0 mg/kg/injection, schedule: Q01DX009 (ip), vehicle: saline) was 101 % of control and 107 % of control and the T/C (endpoint: median survival time, dose: 10.0 mg/kg/injection, schedule: Q01DX009 (ip), vehicle: saline) was 97 % of control. For the same compound, the T/C (endpoint: median survival time, dose: 25.0 mg/kg/injection, schedule: Q01DX020 (ip), vehicle: saline) was 101 % of control, the T/C (endpoint: median survival time, dose: 50.0 mg/kg/injection, schedule: Q01DX020 (ip), vehicle: saline) was 109 % of control and the T/C (endpoint: median survival time, dose: 50.0 mg/kg/injection, schedule: Q04DX002 (ip), vehicle: saline with Tween-80) was 111 % of control. For the same compound, the T/C (endpoint: median survival time, dose: 100.0 mg/kg/injection, schedule: Q01DX009 (ip), vehicle: saline) was 113 % of control and 117 % of control, the T/C (endpoint: median survival time, dose: 100.0 mg/kg/injection, schedule: Q01DX020 (ip), vehicle: saline) was 115 % of control and the T/C (endpoint: median survival time, dose: 100.0 mg/kg/injection, schedule: Q04DX002 (ip), vehicle: saline with Tween-80) was 111 % of control. For the same compound, the T/C (endpoint: median survival time, dose: 150.0 mg/kg/injection, schedule: Q01DX009 (ip), vehicle: saline) was 114 % of control, the T/C (endpoint: median survival time, dose: 200.0 mg/kg/injection, schedule: Q01DX020 (ip), vehicle: saline) was 115 % of control and the T/C (endpoint: median survival time, dose: 200.0 mg/kg/injection, schedule: Q04DX002 (ip), vehicle: saline with Tween-80) was 100 % of control. For the same compound, the T/C (endpoint: median survival time, dose: 400.0 mg/kg/injection, schedule: Q01DX020 (ip), vehicle: saline) was 118 % of control, the T/C (endpoint: median survival time, dose: 400.0 mg/kg/injection, schedule: Q04DX002 (ip), vehicle: saline with Tween-80) was 100 % of control and the T/C (endpoint: median survival time, dose: 800.0 mg/kg/injection, schedule: Q01DX020 (ip), vehicle: saline) was 118 % of control.
In the case of `O=P1(C(Cl)Cl)OCCCCO1`, the T/C [4] is reported as 102 % of control, the T/C (endpoint: mean survival time, dose: 200.0 mg/kg/injection, schedule: Q01DX001 (ip), vehicle: saline) is reported as 102 % of control and the T/C (endpoint: mean survival time, dose: 400.0 mg/kg/injection, schedule: Q01DX001 (ip), vehicle: saline) is reported as 105 % of control.
With `CCOC(=O)Nc1cc(NCCc2ccccc2)c(N)c(N)n1` the T/C (endpoint: mean survival time, dose: 50.0 mg/kg/injection, schedule: Q01DX001 (ip), vehicle: saline) was 101 % of control and the T/C [4] was 92 % of control.
With `NC(=O)c1ccc[n+](CCc2c[nH]c3ccccc23)c1` the T/C (endpoint: mean survival time, dose: 18.75 mg/kg/injection, schedule: Q01DX009 (ip), vehicle: saline with Tween-80) was 101 % of control, the T/C (endpoint: mean survival time, dose: 37.5 mg/kg/injection, schedule: Q01DX009 (ip), vehicle: saline with Tween-80) was 92 % of control and the T/C (endpoint: mean survival time, dose: 75.0 mg/kg/injection, schedule: Q01DX009 (ip), vehicle: saline with Tween-80) was 103 % of control. The T/C (endpoint: mean survival time, dose: 75.0 mg/kg/injection, schedule: Q04DX003 (ip), vehicle: saline with Tween-80) was 88 % of control.
`COc1cc(/C=C/C(=O)O)ccc1OC(C)=O` was tested, and the T/C [1] was 98 % of control, the T/C [2] was 100 % of control and the T/C [3] was 93 % of control.
With `CSc1nc(N)c2c3c(N)ncnc3n(C3OC(CO)C(O)C3O)c2n1` (stereo not drawn) the T/C (endpoint: mean survival time, dose: 25.0 mg/kg/injection, schedule: Q01DX005 (ip), vehicle: distilled water + Tween-80) was 97 % of control, the T/C (endpoint: mean survival time, dose: 50.0 mg/kg/injection, schedule: Q01DX005 (ip), vehicle: distilled water + Tween-80) was 91 % of control and the T/C (endpoint: mean survival time, dose: 100.0 mg/kg/injection, schedule: Q01DX005 (ip), vehicle: distilled water + Tween-80) was 91 % of control. The T/C (endpoint: mean survival time, dose: 200.0 mg/kg/injection, schedule: Q01DX005 (ip), vehicle: distilled water + Tween-80) was 97 % of control and the T/C (endpoint: mean survival time, dose: 400.0 mg/kg/injection, schedule: Q01DX005 (ip), vehicle: distilled water + Tween-80) was 101 % of control.
`NC(CNC(=O)CBr)C(=O)O` (stereo not drawn) was tested, and the T/C (endpoint: median survival time, dose: 3.0 mg/kg/injection, schedule: Q01DX009 (ip), vehicle: water) was 111 % of control, the T/C (endpoint: median survival time, dose: 6.0 mg/kg/injection, schedule: Q01DX009 (ip), vehicle: water) was 122 % of control and 124 % of control and the T/C (endpoint: median survival time, dose: 12.5 mg/kg/injection, schedule: Q01DX009 (ip), vehicle: water) was 122 % of control. For the same compound, the T/C (endpoint: median survival time, dose: 24.0 mg/kg/injection, schedule: Q01DX009 (ip), vehicle: water) was 156 % of control, the T/C (endpoint: median survival time, dose: 25.0 mg/kg/injection, schedule: Q01DX009 (ip), vehicle: water) was 120 % of control and the T/C (endpoint: median survival time, dose: 48.0 mg/kg/injection, schedule: Q01DX009 (ip), vehicle: water) was 156 % of control.
In the case of `Cc1ccc(NC(=O)Nc2ccccc2Cl)c(C)c1`, the T/C [5] is reported as 102 % of control, the T/C [6] is reported as 90 % of control and the T/C [7] is reported as 93 % of control.
`Nc1nc(N)c(CCCOc2ccc(C(=O)O)cc2)c(N)n1` was tested, and the T/C (endpoint: mean survival time, dose: 50.0 mg/kg/injection, schedule: Q01DX009 (ip), vehicle: Klucel (hydroxypropylcellulose) (HPC)) was 94 % of control, the T/C (endpoint: mean survival time, dose: 100.0 mg/kg/injection, schedule: Q01DX009 (ip), vehicle: Klucel (hydroxypropylcellulose) (HPC)) was 101 % of control and the T/C (endpoint: mean survival time, dose: 200.0 mg/kg/injection, schedule: Q01DX009 (ip), vehicle: Klucel (hydroxypropylcellulose) (HPC)) was 94 % of control.
In the case of `O=C(COc1ccccc1)Nc1ccc([N+](=O)[O-])cc1`, the T/C [5] is reported as 100 % of control, the T/C [6] is reported as 99 % of control and the T/C [7] is reported as 100 % of control.
In the case of `O=C(NCCNC(=O)Nc1ccccc1Cl)Nc1ccccc1Cl`, the T/C (endpoint: mean survival time, dose: 100.0 mg/kg/injection, schedule: Q04DX002 (ip), vehicle: saline with Tween-80) is reported as 104 % of control, the T/C (endpoint: mean survival time, dose: 200.0 mg/kg/injection, schedule: Q04DX002 (ip), vehicle: saline with Tween-80) is reported as 97 % of control and the T/C (endpoint: mean survival time, dose: 400.0 mg/kg/injection, schedule: Q04DX002 (ip), vehicle: saline with Tween-80) is reported as 101 % of control.
`C=[CH][Pb]([CH]=C)([O]C(=O)C(C)C)[O]C(=O)C(C)C` was tested, and the T/C (endpoint: mean survival time, dose: 5.0 mg/kg/injection, schedule: Q01DX009 (ip), vehicle: saline with Tween-80) was 93 % of control and the T/C (endpoint: mean survival time, dose: 10.0 mg/kg/injection, schedule: Q01DX009 (ip), vehicle: saline with Tween-80) was 95 % of control.
In the case of `C[n+]1ccn(C(CC(=O)O)C(=O)O)c1` (stereo not drawn), the T/C (endpoint: mean survival time, dose: 100.0 mg/kg/injection, schedule: Q04DX003 (ip), vehicle: saline) is reported as 101 % of control, the T/C (endpoint: mean survival time, dose: 200.0 mg/kg/injection, schedule: Q04DX003 (ip), vehicle: saline) is reported as 103 % of control and the T/C (endpoint: mean survival time, dose: 400.0 mg/kg/injection, schedule: Q04DX003 (ip), vehicle: saline) is reported as 106 % of control.
With `COc1cccc(Sc2ccc([N+](=O)[O-])c3no[n+]([O-])c23)c1` the T/C (endpoint: median survival time, dose: 1.85 mg/kg/injection, schedule: Q01DX005 (ip), vehicle: saline with Tween-80) was 102 % of control, the T/C (endpoint: median survival time, dose: 1.87 mg/kg/injection, schedule: Q01DX005 (ip), vehicle: saline with Tween-80) was 106 % of control and the T/C (endpoint: median survival time, dose: 3.75 mg/kg/injection, schedule: Q01DX005 (ip), vehicle: saline with Tween-80) was 108 % of control and 109 % of control. For the same compound, the T/C (endpoint: median survival time, dose: 7.5 mg/kg/injection, schedule: Q01DX005 (ip), vehicle: saline with Tween-80) was 107 % of control and 111 % of control, the T/C (endpoint: median survival time, dose: 15.0 mg/kg/injection, schedule: Q01DX005 (ip), vehicle: saline with Tween-80) was 108 % of control and the T/C (endpoint: median survival time, dose: 15.0 mg/kg/injection, schedule: Q01DX009 (ip), vehicle: saline with Tween-80) was 102 % of control and 104 % of control. The T/C (endpoint: median survival time, dose: 30.0 mg/kg/injection, schedule: Q01DX005 (ip), vehicle: saline with Tween-80) was 102 % of control and 109 % of control, the T/C (endpoint: median survival time, dose: 30.0 mg/kg/injection, schedule: Q01DX009 (ip), vehicle: saline with Tween-80) was 101 % of control and 103 % of control and the T/C (endpoint: median survival time, dose: 60.0 mg/kg/injection, schedule: Q01DX009 (ip), vehicle: saline with Tween-80) was 96 % of control and 108 % of control. The T/C (endpoint: median survival time, dose: 120.0 mg/kg/injection, schedule: Q01DX009 (ip), vehicle: saline with Tween-80) was 100 % of control.
For `CCNNC(=O)[C@@H]1[C@H](c2cc(OC)c(OC)c(OC)c2)c2cc3c(cc2[C@H](O)[C@H]1CO)OCO3`, the T/C (endpoint: mean survival time, dose: 7.8 mg/kg/injection, schedule: Q01DX Z (ip), vehicle: saline) was 100 % of control, the T/C (endpoint: mean survival time, dose: 15.6 mg/kg/injection, schedule: Q01DX Z (ip), vehicle: saline) was 96 % of control and the T/C (endpoint: mean survival time, dose: 31.3 mg/kg/injection, schedule: Q01DX Z (ip), vehicle: saline) was 103 % of control. The T/C (endpoint: mean survival time, dose: 62.5 mg/kg/injection, schedule: Q01DX Z (ip), vehicle: saline) was 111 % of control.
